System: hepatocytes
Assay: Seq-Well scRNA-Seq of hepatocytes after APAP overdose (signature scores, DEG vs untreated)
Type: in vivo, mouse
[1] = cluster A6, DEG between treatment (APAP and PH)

## CC(=O)Nc1ccc(O)cc1 [APAP, acetaminophen]
[1]
  avg_logFC Tmsb4x: 0.7911
  avg_logFC Tnfrsf1a: 0.5681
  avg_logFC Tnfrsf12a: 1.105
  avg_logFC Tns1: 0.4001
  avg_logFC Tra2a: 0.7081
  avg_logFC Trp53inp1: 0.8829
  avg_logFC Tsc22d2: 0.3629
  avg_logFC Tsku: 0.3332
  avg_logFC Tsr1: 0.3392
  avg_logFC Tubb2a: 0.786
  avg_logFC Tubb6: 0.5715
  avg_logFC Txnrd1: 1.375
  avg_logFC Ugdh: 0.6085
  avg_logFC Wbp1l: 0.3897
  avg_logFC Wdr43: 0.3083
  avg_logFC Xbp1: 0.5694
  avg_logFC Ywhag: 0.5132
  avg_logFC Zyx: 0.2799
  avg_logFC mmu-mir-6240: 1.032
  avg_logFC n-R5-8s1: 0.4005
Cluster A24 (APAP, 24 h)
  avg_logFC Acly: 0.3005
  avg_logFC Arcn1: 0.2594
  avg_logFC Cltc: 0.2853
  avg_logFC Cmah: 0.2958
  avg_logFC Ctnnb1: 0.25
  avg_logFC Dnajb11: 0.2998
  avg_logFC Dnajc12: 0.2565
  avg_logFC Etnk1: 0.2761
  avg_logFC Fndc3b: 0.2502
  avg_logFC Gm26917: 0.5819
  avg_logFC Magt1: 0.253
  avg_logFC Nab1: 0.2534
  avg_logFC Nars: 0.2657
  avg_logFC Nedd4: 0.2553
  avg_logFC Ptprf: 0.2512
  avg_logFC Rab1: 0.2582
  avg_logFC Sec61b: 0.2648
  avg_logFC Srebf1: 0.2874
  avg_logFC Usp4: 0.2727
  avg_logFC Usp9x: 0.2853
Cluster A48 (APAP, 48 h)
  avg_logFC 1-Mar: 0.2986
  avg_logFC 0610005C13Rik: 0.3977
  avg_logFC 1600002H07Rik: 0.2939
  avg_logFC Abcb4: 0.4702
  avg_logFC Abcc3: 0.4075
  avg_logFC Abcd2: 0.2906
  avg_logFC Abhd14b: 0.4104
  avg_logFC Acadl1: 0.3879
  avg_logFC Acat1: 0.3773
  avg_logFC Acbd5: 0.3517
  avg_logFC Aco2: 0.3054
  avg_logFC Acot12: 0.3091
  avg_logFC Acsl1: 0.3668
  avg_logFC Agt: 0.5339
  avg_logFC Ahcy: 0.4739
  avg_logFC Ahsg: 0.2506
  avg_logFC Akr1c19: 0.3705
  avg_logFC Aldh9a1: 0.4147
  avg_logFC Aldoa: 0.2635
  avg_logFC Aldob: 0.3758
  avg_logFC Amy1: 0.495
  avg_logFC Anapc13: 0.2762
  avg_logFC Angptl3: 0.7705
  avg_logFC Apoa5: 0.4366
  avg_logFC Apoc1: 0.3638
  avg_logFC Apoc2: 0.8142
  avg_logFC Apoc3: 0.3634
  avg_logFC Apoc4: 0.5053
  avg_logFC Apoe: 0.6102
  avg_logFC Apoh: 0.5359
  avg_logFC Armc1: 0.2587
  avg_logFC Asgr2: 0.3431
  avg_logFC Aspdh: 0.326
  avg_logFC Atf5: 0.3544
  avg_logFC Atp5b: 0.3451
  avg_logFC Atp5g3: 0.3996
  avg_logFC Atp5j: 0.4575
  avg_logFC Atp5k: 0.4074
  avg_logFC Atp5h: 0.7312
  avg_logFC Azgp1: 0.2836
  avg_logFC Bfar: 0.3018
  avg_logFC Bnip3: 0.5262
  avg_logFC Brap: 0.3395
  avg_logFC Camk2n1: 0.2578
  avg_logFC Cd1d1: 0.3518
  avg_logFC Cdo1: 0.4301
  avg_logFC Cebpb: 0.4231
  avg_logFC Ces1b: 0.5308
  avg_logFC Ces1c: 0.5861
  avg_logFC Ces1f: 0.3532
  avg_logFC Ces2a: 0.3404
  avg_logFC Ces1d: 0.3324
  avg_logFC Chchd10: 0.814
  avg_logFC Cox5a: 0.4303
  avg_logFC Cox8a: 0.5202
  avg_logFC Cp: 0.2715
  avg_logFC Cpt2: 0.3214
  avg_logFC Creb3l3: 0.3228
  avg_logFC Creg1: 0.418
  avg_logFC Ctsd: 0.3237
  avg_logFC Ctsh: 0.4649
